How the values were obtained:
[1] = target: T1, Human P2Y12 receptor (Homo sapiens, UniProt Q9H244); test: Human P2Y12 receptor cell membrane binding assay with [3H] 2-Mes-ADP; conditions: 1 nM [3H] 2-Mes-ADP, membranes of HEK cells expressing P2Y12 receptor; read-out: Binding activity (IC50)
T1 construct: expressed in transfected cells; host or cells: HEK cells
Method in brief: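 Competition binding used 1 nM [3H]2-MeS-ADP on P2Y12-expressing HEK cell membranes for 1 h at room temperature, followed by filtration and scintillation counting.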

[2] = system: Human platelet aggregation caused by ADP; test: Inhibition of ADP-induced platelet aggregation (Mimic-human PRP); assay type: cell-based; conditions: 20 μM ADP, human platelet concentrate diluted with PPP, absorption at 595 nm
Method in brief: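 Ki came from non-linear sigmoidal fits of inhibition, measured as the 3-min rise in absorbance at 595 nm after 20 μM ADP, relative to 0/20 μM ADP controls. Platelets (3–4×10^8/mL in PPP-diluted human PRP) were exposed to 0.01–30 μM compound for 20 min at room temperature beforehand.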

T1 sequence (Q9H244 whole entry): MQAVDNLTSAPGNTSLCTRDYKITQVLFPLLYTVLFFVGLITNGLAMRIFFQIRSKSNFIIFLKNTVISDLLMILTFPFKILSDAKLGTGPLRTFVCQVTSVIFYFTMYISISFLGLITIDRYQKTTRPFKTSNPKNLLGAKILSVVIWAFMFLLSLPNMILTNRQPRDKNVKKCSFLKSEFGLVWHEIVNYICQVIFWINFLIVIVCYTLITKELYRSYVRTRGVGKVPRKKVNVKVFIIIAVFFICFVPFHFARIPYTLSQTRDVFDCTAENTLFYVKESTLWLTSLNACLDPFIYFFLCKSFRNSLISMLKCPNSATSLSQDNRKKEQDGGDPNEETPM

SMILES | IC50 [1] [nM] | Ki [2] [nM]
CCCc1cc2c(N3CCn4c(nnc4C(F)(F)F)C3)nc(CN3CC[C@@H](O)C3)nc2s1 [Example 4-21, (R)-1-[6-Propyl-4-(3-trifluoromethyl-5,6-dihydro-8H-[1,2,4]triazolo[4,3-a]pyrazin-7-yl)thieno[2,3-d]pyrimidin-2-ylmethyl]pyrrolidin-3-ol] | 1110 | 140
CCCc1cc2c(N3CCn4c(nnc4C(F)(F)F)C3)nc(Oc3cccc(C(=O)O)c3)nc2s1 [Example 3-31, 3-[6-Propyl-4-(3-trifluoromethyl-5,6-dihydro-8H-[1,2,4]triazolo[4,3-a]pyrazin-7-yl)-thieno[2,3-d]pyrimidin-2-yloxy]-benzoic acid] | 196 | 2000
CCCc1cc2c(N3CCn4c(nnc4C(F)(F)F)C3)nc(O)nc2s1 [Example 3-27, 6-Propyl-4-(3-trifluoromethyl-5,6-dihydro-8H-[1,2,4]triazolo[4,3-a]pyrazin-7-yl)-thieno[2,3-d]pyrimidin-2-ol] | 5380 | 8800
CCCc1cc2c(N3CCn4c(nnc4C(F)(F)F)C3)nc(N3CCN(C4CCCC4)CC3)nc2s1 [Example 1-40, 7-[2-(4-Cyclopentyl-piperazin-1-yl)-6-propyl-thieno[2,3-d]pyrimidin-4-yl]-3-trifluoromethyl-5,6,7,8-tetrahydro-[1,2,4]triazolo[4,3-a]pyrazine] | 200 | 175
CCCc1cc2c(N3CCn4c(nnc4C(F)(F)F)C3)nc(NCCOCC)nc2s1 [Example 1-122, (2-Ethoxy-ethyl)-[6-propyl-4-(3-trifluoromethyl-5,6-dihydro-8H-[1,2,4]triazolo[4,3-a]pyrazin-7-yl)-thieno[2,3-d]pyrimidin-2-yl]-amine] | 220 | 467
CCCc1cc2c(N3CCn4c(nnc4C(F)(F)F)C3)nc(-c3nnc(Cc4ccccc4)o3)nc2s1 [Example 4-42, 7-[2-(5-Benzyl-[1,3,4]oxadiazol-2-yl)-6-propyl-thieno[2,3-d]pyrimidin-4-yl]-3-trifluoromethyl-5,6,7,8-tetrahydro-[1,2,4]triazolo[4,3-a]pyrazine] | 29 | 160
CCCc1cc2c(N3CCn4c(C)nnc4C3)nc(OCCO)nc2s1 [Example 6-16, 2-[4-(3-Methyl-5,6-dihydro-8H-[1,2,4]triazolo[4,3-a]pyrazin-7-yl)-6-propyl-thieno[2,3-d]pyrimidin-2-yloxy]-ethanol] | 310 | 61
CCCc1cc2c(N3CCn4c(nnc4C(F)(F)F)C3)nc(N3CCCC(O)C3)nc2s1 (centres unmarked) [Example 1-27, 1-[6-Propyl-4-(3-trifluoromethyl-5,6-dihydro-8H-[1,2,4]triazolo[4,3-a]pyrazin-7-yl)-thieno[2,3-d]pyrimidin-2-yl]-piperidin-3-ol] | 56 | 72
CCCc1cc2c(N3CCn4c(nnc4C(F)(F)F)C3)nc(CC(=O)O)nc2s1 [Example 4-54, [6-Propyl-4-(3-trifluoromethyl-5,6-dihydro-8H-[1,2,4]triazolo[4,3-a]pyrazin-7-yl)thieno[2,3-d]pyrimidin-2-yl]acetic acid] | 370 | 470
CCCc1cc2c(N3CCn4c(nnc4C(F)(F)F)C3)nc(N(C)C)nc2s1 [Example 1-64, Dimethyl-[6-propyl-4-(3-trifluoromethyl-5,6-dihydro-8H-[1,2,4]triazolo[4,3-a]pyrazin-7-yl)-thieno[2,3-d]pyrimidin-2-yl]-amine] | 170 | > 4000
CCCc1nc2c(N3CCn4c(nnc4C(F)(F)F)C3)nc(N3CC[C@H](N)C3)nc2s1 [Example 5-5, (S)-1-[2-Propyl-7-(3-trifluoromethyl-5,6-dihydro-8H-[1,2,4]triazolo[4,3-a]pyrazin-7-yl)-thiazolo[5,4-d]pyrimidin-5-yl]-pyrrolidin-3-ylamine] | 170 | 25
CCCc1cc2c(N3CCn4c(nnc4C(F)(F)F)C3)nc(C(=O)NCCC(=O)O)nc2s1 [Example 4-7, 3-{[6-Propyl-4-(3-trifluoromethyl-5,6-dihydro-8H-[1,2,4]triazolo[4,3-a]pyrazin-7-yl)thieno[2,3-d]pyrimidine-2-carbonyl]amino}propionic acid] | 620 | 320
CCCc1cc2c(N3CCn4c(nnc4C(F)(F)F)C3)nc(C(=O)Nc3ccccc3)nc2s1 [Example 4-16, 6-Propyl-4-(3-trifluoromethyl-5,6-dihydro-8H-[1,2,4]triazolo[4,3-a]pyrazin-7-yl)-thieno[2,3-d]pyrimidine-2-carboxylic acid phenylamide] | 650 | > 4000
CCCc1cc2c(N3CCn4c(nnc4C(F)(F)F)C3)nc(OCC(=O)OC)nc2s1 [Example 3-8, [6-Propyl-4-(3-trifluoromethyl-5,6-dihydro-8H-[1,2,4]triazolo[4,3-a]pyrazin-7-yl)-thieno[2,3-d]pyrimidin-2-yloxy]-acetic acid methyl ester] | 331 | 610
CCCc1cc2c(N3CCn4c(nnc4C(F)(F)F)C3)nc(N3CCCC(C(=O)O)C3)nc2s1 (centres unmarked) [Example 1-46, 1-[6-Propyl-4-(3-trifluoromethyl-5,6-dihydro-8H-[1,2,4]triazolo[4,3-a]pyrazin-7-yl)-thieno[2,3-d]pyrimidin-2-yl]-piperidine-3-carboxylic acid] | 21 | 58
CCCc1cc2c(N3CCn4c(nnc4C(F)(F)F)C3)nc(OCC3CCCO3)nc2s1 (centres unmarked) [Example 3-6, 7-[6-Propyl-2-(tetrahydro-furan-2-ylmethoxy)-thieno[2,3-d]pyrimidin-4-yl]-3-trifluoromethyl-5,6,7,8-tetrahydro-[1,2,4]triazolo[4,3-a]pyrazine] | 690 | 140

Reference: patent publication US20110166121A1 (LG LIFE SCIENCES LTD., priority 2008, published 2011)
